Source: ChEMBL document CHEMBL1150210, “Metabolism of the Catharanthus alkaloids: from Streptomyces griseus to monoamine oxidase B” (J Nat Prod, 1992)

Test: Drug level in mouse liver mitochondria
Type: ADME
Conditions: in vivo

`CC[C@]1(O)C[C@@H]2CN(CCc3c([nH]c4ccccc34)[C@@](C(=O)OC)(c3cc4c(cc3OC)N(C)[C@H]3[C@@](O)(C(=O)OC)[C@H](OC(C)=O)[C@]5(CC)C=CCN6CC[C@]43[C@@H]65)C2)C1` [VINBLASTINE] showed a Drug uptake of 18.7%.
